Data set [1] has as its system bicistronic HCV replicon (replicon RNA, GenBank Accession No. AJ242654). Description: HCV Replicon Assay. The settings on record: Hepatitis C virus, 72 h, read-out: Replicon IC50. In kind it is cell-based.

Data on 30 compounds can be found in patent US8735414B2 (priority 2009, dated 2014).

For orientation: melting point means the temperature, or range, at which the solid turns liquid. The term IC50 denotes the concentration needed to halve the response being measured.

Where only a bound is given, the exact number is not on record here.

`CC(C)n1c(-c2ccc(S(=O)(=O)NC3CCC3)cn2)c(C#N)c2ccc(OC(F)F)cc21` [compound 2, 6-[3-cyano-6-(difluoromethoxy)-1-(propan-2-yl)-1H-indol-2-yl]-N-cyclobutylpyridine-3-sulfonamide] displayed a melting point of 130 to 132 °C. In addition, the IC50 in data set [1] is less than 500 nM.
`CC(C)NS(=O)(=O)c1ccc(-c2c(C#N)c3ccc(OC4CCC4)cc3n2C2CCC2)cn1` [compound 4, 5-[3-cyano-1-cyclobutyl-6-(cyclobutyloxy)-1H-indol-2-yl]-N-(propan-2-yl)pyridine-2-sulfonamide]: the melting point lay within 178 to 180 °C. For the same compound, the IC50 in data set [1] was 2000 to 5000 nM.
The matching figures for `CC(C)NS(=O)(=O)c1ccc(-c2c(C#N)c3cc(F)ccc3n2CC2CC2)nc1` [compound 6, 6-[3-cyano-1-(cyclopropylmethyl)-5-fluoro-1H-indol-2-yl]-N-(propan-2-yl)pyridine-3-sulfonamide]: 160 to 162 °C and less than 500 nM.
On the same counts, the results for `CC(C)(C)NS(=O)(=O)c1ccc(-c2c(C#N)c3cc(F)ccc3n2C2CCC2)nc1` [compound 9, N-tert-butyl-6-(3-cyano-1-cyclobutyl-5-fluoro-1H-indol-2-yl)pyridine-3-sulfonamide] are 181 to 185 °C and less than 500 nM.
The matching figures for `CC(C)NS(=O)(=O)c1ccc(-c2c(C#N)c3ccc(OC(F)(F)F)cc3n2CC2CC2)nc1` [compound 11, 6-[3-cyano-1-(cyclopropylmethyl)-6-(trifluoromethoxy)-1H-indol-2-yl]-N-(propan-2-yl)pyridine-3-sulfonamide]: 203 to 205 °C and 500 to 2000 nM.
Compound `N#Cc1c(-c2ccc(S(=O)(=O)NC(CF)CF)cn2)n(C2CCC2)c2cc(C3CC3)ccc12` [compound 35, 6-(3-cyano-1-cyclobutyl-6-cyclopropyl-1H-indol-2-yl)-N-(1,3-difluoropropan-2-yl)pyridine-3-sulfonamide] yielded a melting point of 175 to 178 °C.
On the same count and under the same terms, next, `CC(C)NS(=O)(=O)c1ccc(-c2c(C#N)c3ccc(OC(F)F)cc3n2CC2CC2)cn1` [compound 40, 5-[3-cyano-1-(cyclopropylmethyl)-6-(difluoromethoxy)-1H-indol-2-yl]-N-(propan-2-yl)pyridine-2-sulfonamide]: 186 to 188 °C.
The same measure, in the same setting: the value for `CC(C)NS(=O)(=O)c1ccc(-c2c(C#N)c3ccc(OC(F)F)cc3n2C2CCC2)nc1` [compound 51, 6-[3-cyano-1-cyclobutyl-6-(difluoromethoxy)-1H-indol-2-yl]-N-(propan-2-yl)pyridine-3-sulfonamide] was 158 to 159 °C; that for `CC(C)NS(=O)(=O)c1ccc(-c2c(C#N)c3ccc(OC(F)F)cc3n2C2CCCC2)nc1` [compound 52, 6-[3-cyano-1-cyclopentyl-6-(difluoromethoxy)-1H-indol-2-yl]-N-(propan-2-yl)pyridine-3-sulfonamide] was 157 to 158 °C; that for `CC(C)NS(=O)(=O)c1ccc(-c2c(C#N)c3ccc(OCC(F)F)cc3n2C2CCC2)nc1` [compound 59, 6-[3-cyano-1-cyclobutyl-6-(2,2-difluoroethoxy)-1H-indol-2-yl]-N-(propan-2-yl)pyridine-3-sulfonamide] was 171 to 173 °C.
Still for that read-out and setting: next, `CC(C)(CF)NS(=O)(=O)c1ccc(-c2c(C#N)c3ccc(OC(F)F)cc3n2C2CCC2)nc1` [compound 77, 6-[3-cyano-1-cyclobutyl-6-(difluoromethoxy)-1H-indol-2-yl]-N-(1-fluoro-2-methylpropan-2-yl)pyridine-3-sulfonamide]: 171 to 178 °C; `CC(NS(=O)(=O)c1ccc(-c2c(C#N)c3ccc(OC(F)F)cc3n2C2CCC2)nc1)C(F)(F)F` (centres unmarked) [compound 78, 6-[3-cyano-1-cyclobutyl-6-(difluoromethoxy)-1H-indol-2-yl]-N-(1,1,1-trifluoropropan-2-yl)pyridine-3-sulfonamide]: 159 to 165 °C.
Compound `N#Cc1c(-c2ccc(S(=O)(=O)NC3(C(F)(F)F)CC3)cn2)n(C2CCC2)c2cc(OC(F)F)ccc12` [compound 93, 6-[3-cyano-1-cyclobutyl-6-(difluoromethoxy)-1H-indol-2-yl]-N-[1-(trifluoromethyl)cyclopropyl]pyridine-3-sulfonamide] registered a melting point of 182 to 187 °C.
The same measure, in the same setting: the value for `CC(C)NS(=O)(=O)c1ccc(-c2c(C#N)c3ccc(OC(F)F)cc3n2C2CCCCC2)nc1` [compound 99, 6-[3-cyano-1-cyclohexyl-6-(difluoromethoxy)-1H-indol-2-yl]-N-(propan-2-yl)pyridine-3-sulfonamide] was 187 to 190 °C; that for `N#Cc1c(-c2ccc(S(=O)(=O)NC3(C(F)(F)F)CCC3)cn2)n(C2CCC2)c2cc(OC(F)F)ccc12` [compound 106, 6-[3-cyano-1-cyclobutyl-6-(difluoromethoxy)-1H-indol-2-yl]-N-[1-(trifluoromethyl)cyclobutyl]pyridine-3-sulfonamide] was 162 to 168 °C.
Same read-out and setting: the value for `C[C@H](NS(=O)(=O)c1ccc(-c2c(C#N)c3ccc(OC(F)F)cc3n2C2CCC2)nc1)C1CC1` [compound 151, 6-[3-cyano-1-cyclobutyl-6-(difluoromethoxy)-1H-indol-2-yl]-N-[(1S)-1-cyclopropylethyl]pyridine-3-sulfonamide] was 163 to 168 °C; that for `N#Cc1c(-c2ccc(S(=O)(=O)NC3(C(F)(F)F)CC3)cn2)n(C2CCC2)c2cc(C3CC3)ccc12` [compound 153, 6-(3-cyano-1-cyclobutyl-6-cyclopropyl-1H-indol-2-yl)-N-[1-(trifluoromethyl)cyclopropyl]pyridine-3-sulfonamide] was 166 to 171 °C.
On the same count and under the same terms, the value for `CC(C)NS(=O)(=O)c1cnc(-c2c(C#N)c3ccc(OC(F)F)cc3n2CC2CC2)nc1` [compound 170, 2-[3-cyano-1-(cyclopropylmethyl)-6-(difluoromethoxy)-1H-indol-2-yl]-N-(propan-2-yl)pyrimidine-5-sulfonamide] was 182 to 184 °C; that for `C[C@@H](NS(=O)(=O)c1ccc(-c2c(C#N)c3ccc(OC(F)F)cc3n2C2CCC2)nc1)C(F)(F)F` [compound 196, 6-[3-cyano-1-cyclobutyl-6-(difluoromethoxy)-1H-indol-2-yl]-N-[(2R)-1,1,1-trifluoropropan-2-yl]pyridine-3-sulfonamide] was 159 to 164 °C; that for `C[C@@H](NS(=O)(=O)c1ccc(-c2c(C#N)c3ccc(C4CC4)cc3n2C2CCC2)nc1)C(F)(F)F` [compound 212, 6-(3-cyano-1-cyclobutyl-6-cyclopropyl-1H-indol-2-yl)-N-[(2R)-1,1,1-trifluoropropan-2-yl]pyridine-3-sulfonamide] was 192 to 196 °C.
`N#Cc1c(-c2ccc(S(=O)(=O)NC(CO)CO)cn2)n(C2CCC2)c2cc(OC(F)F)ccc12` [compound 239, 6-[3-cyano-1-cyclobutyl-6-(difluoromethoxy)-1H-indol-2-yl]-N-(1,3-dihydroxypropan-2-yl)pyridine-3-sulfonamide] displayed a melting point of 132 to 135 °C.
Still for that read-out and setting: next, `CC(C)NS(=O)(=O)c1ccc(-c2c(C#N)c3ccc(C4CCC4)cc3n2C2CCC2)nc1` [compound 266, 6-(3-cyano-1,6-dicyclobutyl-1H-indol-2-yl)-N-(propan-2-yl)pyridine-3-sulfonamide]: 178 to 180 °C; `C[C@H](NS(=O)(=O)c1ccc(-c2c(C#N)c3ccc(OC(F)F)cc3n2C2CCC2)nc1)C(F)(F)F` [compound 300, 6-[3-cyano-1-cyclobutyl-6-(difluoromethoxy)-1H-indol-2-yl]-N-[(2S)-1,1,1-trifluoropropan-2-yl]pyridine-3-sulfonamide]: 159 to 162 °C.
`CC(C#N)NS(=O)(=O)c1ccc(-c2c(C#N)c3ccc(OC(F)F)cc3n2C2CCC2)nc1` (centres unmarked) [compound 301, 6-[3-cyano-1-cyclobutyl-6-(difluoromethoxy)-1H-indol-2-yl]-N-(1-cyanoethyl)pyridine-3-sulfonamide] gave a melting point of 188 to 190 °C.
On the same count and under the same terms, the value for `CC(C)NS(=O)(=O)c1ccc(-c2c(C#N)c3ccc(C(F)F)cc3n2C2CCC2)nc1` [compound 333, 6-[3-cyano-1-cyclobutyl-6-(difluoromethyl)-1H-indol-2-yl]-N-(propan-2-yl)pyridine-3-sulfonamide] was 212 to 220 °C; that for `C[C@H](NS(=O)(=O)c1ccc(-c2c(C#N)c3ccc(C4CC4)cc3n2C2CCC2)nc1)C(F)(F)F` [compound 369, 6-(3-cyano-1-cyclobutyl-6-cyclopropyl-1H-indol-2-yl)-N-[(2S)-1,1,1-trifluoropropan-2-yl]pyridine-3-sulfonamide] was 191 to 197 °C; that for `CC(C)(NS(=O)(=O)c1ccc(-c2c(C#N)c3ccc(OC(F)F)cc3n2C2CCC2)nc1)C(F)(F)F` [compound 479, 6-[3-cyano-1-cyclobutyl-6-(difluoromethoxy)-1H-indol-2-yl]-N-(1,1,1-trifluoro-2-methylpropan-2-yl)pyridine-3-sulfonamide] was 165 to 171 °C.
Same read-out and setting: the value for `CC(C)(C)NS(=O)(=O)c1ccc(-c2c(C#N)c3ccc(OC(F)F)cc3n2C2CCC2)nc1` [compound 543, N-tert-butyl-6-[3-cyano-1-cyclobutyl-6-(difluoromethoxy)-1H-indol-2-yl]pyridine-3-sulfonamide] was 178 to 180 °C; that for `N#Cc1c(-c2ccc(S(N)(=O)=O)cn2)n(C2CCC2)c2cc(OC(F)F)ccc12` [compound 552, 6-[3-cyano-1-cyclobutyl-6-(difluoromethoxy)-1H-indol-2-yl]pyridine-3-sulfonamide] was 204 to 205 °C.
In turn, `C[C@H](NS(=O)(=O)c1ccc(-c2c(C(N)=O)c3cc(F)c(C4CC4)cc3n2C2CCCC2)nc1)C(F)(F)F` [compound 842, 1-cyclopentyl-6-cyclopropyl-5-fluoro-2-(5-{[(2S)-1,1,1-trifluoropropan-2-yl]sulfamoyl}pyridin-2-yl)-1H-indole-3-carboxamide] showed a melting point of 255 to 257 °C.
